From patent publication US11186583B2, “5-alkylthio-7-[(4-arylbenzyl)amino]-1(2)H-pyrazolo[4,3-d]pyrimidines for treatment of lymphoma” (UNIVERZITA PALACKEHO V OLOMOUCI, priority 2018, dated 2021)
Read-outs that look alike come from different tables or passages of the source.

Legend:
CDK2/Cyclin E = molecular target: T1, CDK2/Cyclin E (Homo sapiens, UniProt P24941); assay: CDK2/Cyclin E kinase inhibition, [γ-33P]ATP, histone H1; type: biochemical
T1 construct: made in house; host or cells: Sf9 insect cells (baculovirus)
Protocol: CDK2/Cyclin E and CDK1/Cyclin B kinases were produced in Sf9 insect cells via baculoviral infection and purified on a Ni-NTA column (Qiagen). CDK4/Cyclin D1, CDK5/p35NCK, CDK7/Cyclin H/MAT1 and CDK9/Cyclin T1 were purchased from ProQinase GmbH. […] The reactions were stopped by adding 5 mL of 3% aq. H3PO4. Aliquots were spotted onto P-81 phosphocellulose (Whatman), washed 3 times with 0.5% aq. H3PO4 and finally air-dried. Kinase inhibition was quantified using a FLA-7000 digital image analyzer (Fujifilm). The concentration of the test compounds required to decrease the CDK activity by 50% was determined from dose response curves and designated as IC50.

[1] = test system: HT (diffuse large B-cell lymphoma, subtype—germinal center B-cell); assay: MTT cytotoxicity assay, HT lymphoma cell line; type: cell-based; conditions: Homo sapiens, 72 h, HT cells, three days, read-out: Lymphoma cell lines GI50, HT
Excerpt: (§1) Cytotoxicity of the compounds is the major property determining their anti-lymphoma efficacy in vitro. One of the parameters used, as the basis for cytotoxicity assays, is the metabolic activity of viable cells. For example 2, a microtiter assay, which uses (3-(4,5-dimethylthiazol-2-yl)-2,5-diphenyltetrazolium bromide (MTT), is widely used to quantitate cell proliferation and cytotoxicity. This assay is widely used in drug screening programs and in chemosensitivity testing. Because only metabolically active living cells reduce MTT to correspond purple formazan dye, these assays detect viable cells exclusively. The quantity of reduced MTT corresponds to the number of vital cells in the culture.
(§2) The compounds were assayed using the following lymphoma cell lines: HT (diffuse large B-cell lymphoma, subtype—germinal center B-cell), OCI-LY2 (diffuse large B-cell lymphoma, subtype—germinal center B-cell), MINO (mantle cell lymphoma). All cell lines were grown in RPMI medium supplemented with fetal bovine serum and glutamine and maintained at 37° C. in a humidified atmosphere with 5% CO2. For cytotoxicity assays, 5000-10000 cells were seeded into each well of 96 well plate, allowed to stabilize for at least 8 h and then tested compounds were added at various concentrations ranging from 100 to 0.01 μM in triplicates. After three days, MTT solution (5 mg/ml; Sigma, St. Louis, USA) was added to cells and medium was replaced with DMSO after five hours. The absorbance was measured at 620 nm by employing a microplate reader. MTT assays were repeated 3 times for each drug application and untreated cells were used as reference. The GI50 values, drug concentrations lethal to 50% of the cells, were calculated from the obtained dose response curves.

[2] = test system: OCI-LY2 (diffuse large B-cell lymphoma, subtype—germinal center B-cell); assay: MTT cytotoxicity assay, OCI-LY2 lymphoma cell line; type: cell-based; conditions: 72 h, OCI-LY2 cells, three days, read-out: Lymphoma cell lines GI50, OCI-LY2
Excerpt: as §1, §2

[3] = test system: MINO (mantle cell lymphoma); assay: MTT cytotoxicity assay, MINO lymphoma cell line; type: cell-based; conditions: Homo sapiens, 72 h, MINO cells, three days, read-out: Lymphoma cell lines GI50, MINO
Excerpt: as §1, §2

[4] = Table 4, read-out: CDK2/E inhibition IC50
[5] = Table 3, read-out: Enzyme inhibition IC50 CDK2/E

| Compound | IC50 (CDK2/Cyclin E; [4]) [nM] | GI50 [1] [nM] | GI50 [2] [nM] | GI50 [3] [nM] | other results |
| --- | --- | --- | --- | --- | --- |
| CC(O)CSc1nc(NCc2ccc(-n3cccn3)cc2)c2n[nH]c(C(C)C)c2n1 (stereo not shown) [Compound 4.81, 5-(2-Hydroxy-1-propyl)thio-3-isopropyl-7-[4-(pyrazol-1-yl)benzyl]amino-1(2)H-pyrazolo[4,3-d]pyrimidin] | 37 | – | – | – | – |
| CC(C)c1n[nH]c2c(NCc3ccc(-c4ccccn4)cc3)nc(SCCN)nc12 [Compound 4.9, 5-(2-Amino-1-ethyl)thio-3-isopropyl-7-[4-(2-pyridyl)benzyl]amino-1(2)H-pyrazolo[4,3-d]pyrimidine] | – | 40 | 46 | 29 | IC50 (CDK2/Cyclin E; CDK panel, tested at least in duplicates, read-out: IC50 CDK2): 5 ± 1 nM; IC50 (CDK2/Cyclin E; [5]): 4 nM |
| CC(C)c1[nH]nc2c(NCc3ccc(-n4cccn4)cc3)nc(SCC(C)(C)N)nc12 [Compound 4.90, 5-(2-Amino-2-methyl-1-propyl)thio-3-isopropyl-7-[4-(pyrazol-1-yl)benzyl]amino-1(2)H-pyrazolo[4,3-d]pyrimidin] | 11 | – | – | – | – |
| CC(C)c1n[nH]c2c(NCc3ccc(-c4cnccn4)cc3)nc(SCCN)nc12 [Compound 4.139, 5-(2-Amino-1-ethyl)thio-3-isopropyl-7-[4-(pyrazin-2-yl)benzyl]amino-1(2)H-pyrazolo[4,3-d]pyrimidin] | 4 | – | – | – | – |
| CC(C)c1n[nH]c2c(NCc3ccc(-c4ccccn4)cc3)nc(SC3OC(CO)C(O)C(O)C3O)nc12 [Compound 4.22, 5-β-D-Thioglucosid-3-isopropyl-7-[4-(2-pyridyl)benzyl]amino-1(2)H-pyrazolo[4,3-d]pyrimidine] | – | 8070 | 25200 | 21600 | IC50 (CDK2/Cyclin E; [5]): 363 nM |
| CC(C)c1[nH]nc2c(NCc3ccc(-n4cccn4)cc3)nc(SCCN(C)C)nc12 [Compound 4.95] | 43 | – | – | – | – |
| CC(C)c1n[nH]c2c(NCc3ccc(-c4cnccn4)cc3)nc(SCCO)nc12 [Compound 4.133, 5-(2-Hydroxy-1-ethyl)thio-3-isopropyl-7-[4-(pyrazin-2-yl)benzyl]amino-1(2)H-pyrazolo[4,3-d]pyrimidin] | 6 | – | – | – | – |
| CC(C)c1n[nH]c2c(NCc3ccc(-c4ccccn4)cc3)nc(SCCS)nc12 [Compound 4.35, 5-(2-sulfanylethyl)thio-3-isopropyl-7-[4-(2-pyridyl)benzyl]amino-1(2)H-pyrazolo[4,3-d]pyrimidine] | – | – | – | – | IC50 (CDK2/Cyclin E; [5]): 320 nM |
| CC(C)c1[nH]nc2c(NCc3ccc(-n4cccn4)cc3)nc(SCCCN(C)C)nc12 [Compound 4.96] | 60 | – | – | – | – |
| CC(C)c1n[nH]c2c(NCc3ccc(-n4ccnc4)cc3)nc(SCCN)nc12 [Compound 4.57, 5-(2-Amino-1-ethyl)thio-3-isopropyl-7-[4-(imidazol-1-yl)benzyl]amino-1(2)H-pyrazolo[4,3-d]pyrimidin] | 5 | – | – | – | – |
| CCC(O)CSc1nc(NCc2ccc(-c3ccccn3)cc2)c2[nH]nc(C(C)C)c2n1 (stereo not shown) [Compound 4.15, 5-(2-Hydroxy-1-butyl)thio-3-isopropyl-7-[4-(2-pyridyl)benzyl]amino-1(2)H-pyrazolo[4,3-d]pyrimidine] | – | 273 | 280 | 427 | – |
| CC(C)c1n[nH]c2c(NCc3ccc(-c4ccccn4)cc3)nc(SCC(N)CN)nc12 (stereo not shown) [Compound 4.29, 5-(2,3-Diamino-1-propyl)thio-3-isopropyl-7-[4-(2-pyridyl)benzyl]amino-1(2)H-pyrazolo[4,3-d]pyrimidine] | – | 480 | 780 | 770 | – |
| CC(C)c1[nH]nc2c(NCc3ccc(-n4cccn4)cc3)nc(SCCO)nc12 [Compound 4.80, 5-(2-Hydroxy-1-ethyl)thio-3-isopropyl-7-[4-(pyrazol-1-yl)benzyl]amino-1(2)H-pyrazolo[4,3-d]pyrimidin] | 3 | – | – | – | – |
| CC(C)c1n[nH]c2c(NCc3ccc(-c4ccccn4)cc3)nc(SCC(N)=O)nc12 [Compound 4.7, 5-(Carbamoylmethyl)thio-3-isopropyl-7-[4-(2-pyridyl)benzyl]amino-1(2)H-pyrazolo[4,3-d]pyrimidine] | – | 192 | 163 | 197 | – |
| CC(C)c1n[nH]c2c(NCc3ccc(-n4ccnc4)cc3)nc(SCCO)nc12 [Compound 4.50, 5-(2-Hydroxy-1-ethyl)thio-3-isopropyl-7-[4-(imidazol-1-yl)benzyl]amino-1(2)H-pyrazolo[4,3-d]pyrimidine] | 10 | – | – | – | – |
| CC(C)c1[nH]nc2c(NCc3ccc(-n4cccn4)cc3)nc(SCC(O)CO)nc12 (stereo not shown) [Compound 4.94, 5-(2,3-Dihydroxy-1-propyl)thio-3-isopropyl-7-[4-(pyrazol-1-yl)benzyl]amino-1(2)H-pyrazolo[4,3-d]pyrimidin] | 6 | – | – | – | – |
| COCSc1nc(NCc2ccc(-c3ccccn3)cc2)c2[nH]nc(C(C)C)c2n1 [Compound 4.33, 5-(Methoxymethyl)thio-3-isopropyl-7-[4-(2-pyridyl)benzyl]amino-1(2)H-pyrazolo[4,3-d]pyrimidine] | – | 340 | 285 | 243 | – |
| CC(C)c1n[nH]c2c(NCc3ccc(-c4c[nH]cn4)cc3)nc(SCCO)nc12 [Compound 4.109, 5-(2-Hydroxy-1-ethyl)thio-3-isopropyl-7-[4-(imidazol-4-yl)benzyl]amino-1(2)H-pyrazolo[4,3-d]pyrimidin] | 5 | – | – | – | – |
| CC(C)c1n[nH]c2c(NCc3ccc(-c4ccccn4)cc3)nc(SCCNC(N)=O)nc12 [Compound 4.11, 5-(2-Ureido-1-ethyl)thio-3-isopropyl-7-[4-(2-pyridyl)benzyl]amino-1(2)H-pyrazolo[4,3-d]pyrimidine] | – | 240 | 198 | 136 | – |
| CC(C)c1[nH]nc2c(NCc3ccc(-n4cccn4)cc3)nc(SCC(C)(C)O)nc12 [Compound 4.93, 5-(2-Hydroxy-2-methyl-1-propyl)thio-3-isopropyl-7-[4-(pyrazol-1-yl)benzyl]amino-1(2)H-pyrazolo[4,3-d]pyrimidin] | 8 | – | – | – | – |
| CC(C)c1n[nH]c2c(NCc3ccc(-c4ccccn4)cc3)nc(SC(CO)C(C)C)nc12 (stereo not shown) [Compound 4.21, 5-(1-Hydroxy-3-methyl-2-butyl)thio-3-isopropyl-7-[4-(2-pyridyl)benzyl]amino-1(2)H-pyrazolo[4,3-d]pyrimidine] | – | 980 | 1000 | 1310 | – |
| CC(C)c1n[nH]c2c(NCc3ccc(-c4ccccn4)cc3)nc(SC3CCCC3O)nc12 (stereo not shown) [Compound 4.16, 5-(2-Hydroxycyclopentyl)thio-3-isopropyl-7-[4-(2-pyridyl)benzyl]amino-1(2)H-pyrazolo[4,3-d]pyrimidine] | – | 567 | 373 | 450 | – |
| C=CCSc1nc(NCc2ccc(-c3ccccn3)cc2)c2[nH]nc(C(C)C)c2n1 [Compound 4.2, 5-(Prop-2-en-1-yl)thio-3-isopropyl-7-[4-(2-pyridyl)benzyl]amino-1(2)H-pyrazolo[4,3-d]pyrimidine] | – | 1000 | 858 | 923 | – |
| CCC(CO)Sc1nc(NCc2ccc(-c3ccccn3)cc2)c2[nH]nc(C(C)C)c2n1 (stereo not shown) [Compound 4.5, 5-(1-Hydroxy-2-butyl)thio-3-isopropyl-7-[4-(2-pyridyl)benzyl]amino-1(2)H-pyrazolo[4,3-d]pyrimidin] | – | 255 | 181 | 119 | – |
